Values quoted from earlier work in US20110201579A1, “Method of Improving the Overall Health of a Patient by Application of Pregnenolone” (priority 2010, published 2011).

Tests used:
[1] = some people
[2] = rodents
[3] = individuals with rheumatoid arthritis

SMILES | energy, vision, memory, clarity of thinking, wellbeing, sexual enjoyment or libido [1] | memory [2] | improvement of rheumatoid arthritis [3]
CC(=O)[C@H]1CC[C@H]2[C@@H]3CC=C4C[C@@H](O)CC[C@]4(C)[C@H]3CC[C@]12C [pregnenolone, Pregnenolone] | improves energy, vision, memory, clarity of thinking, wellbeing, and often sexual enjoyment or libido | one of the most effective and powerful memory boosters | 
C[C@]12CCC(=O)C=C1CC[C@@H]1[C@@H]2[C@@H](O)C[C@@]2(C)[C@H]1CC[C@]2(O)C(=O)CO [cortisol] |  |  | outstanding short-term improvements
